Experimental data published in US20150296779A1, “SUBSTITUTED DIHYDROPYRIDINES FOR SOMATIC EMBRYOGENESIS IN PLANTS” (STICHTING DIENST LANDBOUWKUNDIG ONDERZOEK, priority 2012, published 2015).

Legend:
Format in all cases: in vivo, Arabidopsis thaliana
Arabidopsis seedlings [1] = assay: Dose-response analysis for somatic embryo induction in containers (circa 30 seeds in 30 ml medium; FIG. 2, FIG. 4)
Description: (§1) The chemical screen was based on a modified version of an Arabidopsis somatic embryogenesis protocol that uses germinated seeds as explants (see Kobayashi et al., 2010 Kobayashi T, Nagayama Y, Higashi K and Kobayashi M. (2010). Establishment of a tissue culture system for somatic embryogenesis from germinating embryos of Arabidopsis thaliana Plant Biotech. 27: 359-364). In the original protocol, seeds were germinated on solid medium for one day, then the embryos were removed from the seed coat and transferred to solid media containing 4.5 μM 2,4-D to stimulate somatic embryo development. In this example, the protocol is simplified by germinating and culturing the seeds continuously in liquid medium containing 1 μM 2,4-D. Under optimized culture conditions (circa 30 seeds in 30 ml medium) approximately 18% of Col0 seeds form somatic embryos.
Approximately 10 surface-sterilized Columbia (Col-0) seeds were added to each well. The seeds were stratified at 4° C. in the dark for two days and then grown in on a rotary shaker (100 rpm/min) on a 16 h/8 h day/night cycle at 25° C. The number of seedlings that formed somatic embryos was counted two weeks later. […] Positive compounds were analysed using ChemMine (http://bioweb.ucr.edu/ChemMineV2/), ChemSpider (http://www.chemspider.com/) and the ZINC database (http://zinc.docking.org) for analogues with a putative biological function. […]

Arabidopsis seedlings [2] = assay: Somatic embryogenesis at increasing 2,4-D concentrations with or without 25 μM C#5 (FIG. 3)
Experimental: All subsequent experiments were performed under the conditions described above, but using 100 ml containers (Greiner) containing 30 ml of medium media using approximately 30 seeds/container. All hormones were ordered from Duchefa and Dicamba from Sigma-Aldrich.
2,4-D is widely used to induce somatic embryogenesis from plant explant. In Arabidopsis immature zygotic embryos occasionally form somatic embryos when grown in basal medium, while germinating embryos or other vegetative tissues are unable to form embryos.

Arabidopsis seedlings [3] = assay: Testing of compounds for somatic embryogenesis activity in the presence of 2,4-D (FIG. 1); conditions: in the presence of 1 μM 2,4-D
Description: as §1, with “embryos. […]” for “embryos.”
Approximately 10 surface-sterilized Columbia (Col-0) seeds were added to each well. […] The number of seedlings that formed somatic embryos was counted two weeks later. […] Positive compounds were analysed using ChemMine (http://bioweb.ucr.edu/ChemMineV2/), ChemSpider (http://www.chemspider.com/) and the ZINC database (http://zinc.docking.org) for analogues with a putative biological function. […]

| Structure (SMILES) | Col0 seeds that form somatic embryos (Arabidopsis seedlings [1]; liquid medium containing 1 μM 2,4-D alone, circa 30 seeds in 30 ml medium) | somatic embryo formation in the absence of 2,4-D (Arabidopsis seedlings [2]; 25 μM C#5, 0 μM 2,4-D) | somatic embryo formation at all of the tested 2,4-D concentrations (Arabidopsis seedlings [2]; 25 μM C#5, 2,4-D up to 2 μM, versus control (2,4-D only)) | threshold concentration of 2,4-D needed to achieve enhanced SE (Arabidopsis seedlings [2]; using 25 μM of C#5, seedlings grown in containers) | seedlings with somatic embryo development (Arabidopsis seedlings [1]; at about 10 to about 50 μM compound, compared to circa 5% of seedlings in the control) | level of SE, as measured by the percentage of seedlings with somatic embryos (Arabidopsis seedlings [3]) |
| --- | --- | --- | --- | --- | --- | --- |
| O=C(O)COc1ccc(Cl)cc1Cl [2,4-D, 2,4-dichlorophenoxyacetic acid, reference compound] | approximately 18% | – | – | – | – | – |
| CC1=C(C(=O)OC2CCCC2)C(c2ccncc2)C2=C(CC(C)(C)CC2=O)N1 (stereo not drawn) [C#5, cyclopentyl 2,7,7-trimethyl-5-oxo-4-(4-pyridinyl)-1,4,5,6,7,8-hexahydro-3-quinolinecarboxylate] | – | not able to induce somatic embryo formation | did enhance somatic embryo formation | about 0.4 μM | about 50% | high percentage |
